Among the data in patent publication US10947272B2, “BACE1 inhibitor peptides” (HOFFMANN-LA ROCHE INC., priority 2015, dated 2021) are IC50 values, retold here.

Structures can show the parent of a compound that is named as a salt. Where two headings read alike, the source gives them in different places. Numbered stars: 1 amine (or outer) side, 2 acyl side, 3 side chain; on linkers, the order of the positions; unused ones are H or OH. Square brackets hold non-standard residues; d marks the D form. Peptide text beside a SMILES is read from it. MetSta(3S,4S) = CSCC[C@H](N[*:1])[C@@H](O)CC(=O)[*:2]; Sta = CC(C)C[C@H](N)[C@@H](O)CC(=O)O; PEG4 = NCCOCCOCCOCCOCCC(=O)O

The target of this test is T1, BACE1 (Homo sapiens, UniProt P56817).
T1 construct: Human HEK293 cells which are stably transfected with a vector expressing a cDNA of the human APP wt gene (APP695); endogenous in cells; host or cells: HEK293 (human), stably transfected with human APP695 wt cDNA
Kind of test: Cellular Aβ-lowering assay (Aβ40 ELISA of culture supernatant). In kind it is cell-based. The note with it: HEK293 cells stably transfected with human APP wt (APP695), Aβ40 in supernatant. The protocol: The compounds were investigated in accordance with the test given hereinafter. Cellular Aβ-Lowering Assay: Human HEK293 cells which are stably transfected with a vector expressing a cDNA of the human APP wt gene (APP695) were used to assess the potency of the compounds in a cellular assay. The cells were seeded in 96-well microtiter plates in cell culture medium (Iscove, plus 10% (v/v) fetal bovine serum, glutamine, penicillin/streptomycin) to about 80% confluence and the compounds were added at a 10× concentration in 1/10 volume of medium without FCS containing 8% DMSO (final concentration of DMSO was kept at 0.8% v/v). After 18-20 hrs incubation at 37° C. and 5% CO2 in a humidified incubator the culture supernatant was harvested for the determination of Aβ40 concentrations. 96 well ELISA plates (e.g., Nunc MaxiSorb) were coated with monoclonal antibody which specifically recognize the C-terminal end of Aβ40 (Brockhaus et al., NeuroReport 9, 1481-1486; 1998). After blocking of non-specific binding sites with e.g. 1% BSA and washing, the culture supernatants were added in suitable dilutions together with a horseradish peroxidase-coupled Aβ detection antibody (e.g., antibody 4G8, Senetek, Maryland Heights, Mo.) and incubated for 5 to 7 hrs. Subsequently the wells of the microtiter plate were washed extensively with Tris-buffered saline containing 0.05% Tween 20 and the assay was developed with tetramethylbenzidine/H2O2 in citric acid buffer. After stopping the reaction with one volume 1 N H2SO4 the reaction was measured in an ELISA reader at 450 nm wavelength. The concentrations of Aβ in the culture supernatants were calculated from a standard curve obtained with known amounts of pure Aβ peptide.
In general terms: ELISA stands for enzyme-linked immunosorbent assay.

[1] abbreviates: dual-site BACE1 inhibitors, 18-20 hrs incubation, read-out: IC 50.
Setting [2] is: exosite motifs alone, read-out: IC 50.
[3] abbreviates: IC 50, dual-site BACE1 inhibitors, 18-20 hrs incubation.

T1 sequence (P56817 46-501): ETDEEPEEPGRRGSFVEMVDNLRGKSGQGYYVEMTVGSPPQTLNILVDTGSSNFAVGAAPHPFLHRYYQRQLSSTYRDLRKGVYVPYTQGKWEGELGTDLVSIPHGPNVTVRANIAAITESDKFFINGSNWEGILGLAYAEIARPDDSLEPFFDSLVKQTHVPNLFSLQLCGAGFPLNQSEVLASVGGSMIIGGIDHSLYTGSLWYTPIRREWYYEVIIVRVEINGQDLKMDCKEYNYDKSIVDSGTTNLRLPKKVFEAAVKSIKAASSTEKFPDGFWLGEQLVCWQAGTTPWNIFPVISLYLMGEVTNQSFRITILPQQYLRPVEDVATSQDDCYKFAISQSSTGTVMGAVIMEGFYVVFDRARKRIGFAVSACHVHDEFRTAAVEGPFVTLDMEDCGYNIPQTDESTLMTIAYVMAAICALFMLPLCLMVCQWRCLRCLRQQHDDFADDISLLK

With `CC(C)C[C@H](NC(=O)[C@@H](CCCCN)NC(=O)[C@H](Cc1ccccc1)NC(=O)[C@H](Cc1ccc(O)cc1)NC(=O)[C@@H]1CCCN1C(=O)[C@@H](N)Cc1ccc(O)cc1)C(=O)NCCOCCOCCOCCOCCC(=O)N[C@@H](CCC(=O)O)C(=O)N[C@H](C(=O)N[C@@H](CC(N)=O)C(=O)N[C@@H](CC(C)C)[C@@H](O)CC(=O)N[C@H](C(=O)N[C@@H](C)C(=O)N[C@@H](CCC(=O)O)C(=O)N1CCC[C@@H]1C(N)=O)C(C)C)C(C)C` [Example 23, H-Tyr-Pro-Tyr-Phe-DLys-Leu-PEG(4)-Glu-Val-Asn-Sta-Val-Ala-Glu-DPro-NH2 × 3TFA] (H-YPYF[dK]L[PEG4]EVN[Sta]VAE[dP]-NH2), the IC50 under setting [1] is > 40 µM.
On to `CC[C@H](C)[C@H](NC(=O)[C@H](Cc1ccccc1)NC(=O)[C@H](CCCCN)NC(=O)[C@@H]1CCCN1C(=O)[C@H](Cc1ccc(O)cc1)NC(=O)[C@H](CC(=O)O)NC(=O)CNC(C)=O)C(=O)N[C@@H](CO)C(=O)N[C@@H](C)C(=O)N[C@@H](CC(N)=O)C(N)=O` [Example E4, Ac-Gly-Asp-Tyr-Pro-Lys-Phe-Ile-Ser-Ala-Asn-NH2] (Ac-GDYPKFISAN-NH2), for which the IC50 under setting [2] was > 40 µM.
As for `CC(C)C[C@H](NC(=O)[C@@H]1CCCN1C(=O)[C@@H](CCCCN)NC(=O)[C@H](Cc1ccccc1)NC(=O)[C@H](Cc1ccc(O)cc1)NC(=O)[C@@H]1CCCN1C(=O)[C@@H](N)Cc1ccc(O)cc1)C(=O)NCC(=O)N[C@H](CCCCN)C(=O)NCC(=O)N[C@@H](CCC(=O)O)C(=O)N[C@H](C(=O)N[C@@H](CC(N)=O)C(=O)N[C@@H](CC(C)C)[C@@H](O)CC(=O)N[C@H](C(=O)N[C@@H](C)C(=O)N[C@@H](CCC(=O)O)C(=O)N1CCC[C@@H]1C(N)=O)C(C)C)C(C)C` [Example 13, Tyr-Pro-Tyr-Phe-DLys-Pro-Leu-Gly-DLys-Gly-Glu-Val-Asn-Sta-Val-Ala-Glu-DPro-NH2 × 3TFA] (H-YPYF[dK]PLG[dK]GEVN[Sta]VAE[dP]-NH2), the IC50 under setting [1] is > 40 µM.
Regarding `CSCC[C@H](NC(=O)[C@H](CC(N)=O)NC(=O)[C@@H](NC(=O)[C@@H](N)CCC(=O)O)C(C)C)[C@@H](O)CC(=O)N[C@H](C(=O)N[C@@H](C)C(=O)N[C@@H](CCC(=O)O)C(=O)N[C@H](Cc1ccccc1)C(N)=O)C(C)C` [Example A2, Glu-Val-Asn-MetSta-Val-Ala-Glu-DPhe-NH2 × TFA, reference compound] (H-EVN[MetSta(3S,4S)]VAE[dF]-NH2), the IC50 (active site motifs alone, read-out: IC 50) was > 40 µM.
`CC(C)C[C@H](NC(=O)[C@@H]1CCCN1C(=O)[C@@H](CCCCN)NC(=O)[C@H](Cc1ccccc1)NC(=O)[C@H](Cc1ccc(O)cc1)NC(=O)[C@@H]1CCCN1C(=O)[C@@H](N)Cc1ccc(O)cc1)C(=O)NCCOCCOCCOCCOCCC(=O)N[C@@H](CCC(=O)O)C(=O)N[C@H](C(=O)N[C@@H](CC(N)=O)C(=O)N[C@@H](CC(C)C)[C@@H](O)CC(=O)N[C@H](C(=O)N[C@@H](C)C(=O)N[C@@H](CCC(=O)O)C(=O)N1CCC[C@@H]1C(N)=O)C(C)C)C(C)C` [Example 24, H-Tyr-Pro-Tyr-Phe-DLys-Pro-Leu-PEG(4)-Glu-Val-Asn-Sta-Val-Ala-Glu-DPro-NH2 × 2TFA] (H-YPYF[dK]PL[PEG4]EVN[Sta]VAE[dP]-NH2): the IC50 under setting [3] is > 40 µM.
In the case of `CC[C@H](C)[C@H](NC(=O)[C@H](Cc1ccccc1)NC(=O)[C@H](Cc1ccc(O)cc1)NC(=O)[C@@H]1CCCN1C(=O)[C@@H](N)Cc1ccc(O)cc1)C(=O)N[C@H](CCCCN)C(=O)N[C@@H](CC(C)C)C(=O)NCC(=O)N[C@H](CCCCN)C(=O)NCC(=O)N[C@@H](CCC(=O)O)C(=O)N[C@H](C(=O)N[C@@H](CC(N)=O)C(=O)N[C@@H](CC(C)C)[C@@H](O)CC(=O)N[C@H](C(=O)N[C@@H](C)C(=O)N[C@@H](CCC(=O)O)C(=O)N1CCC[C@@H]1C(N)=O)C(C)C)C(C)C` [Example 12, Tyr-Pro-Tyr-Phe-Ile-DLys-Leu-Gly-DLys-Gly-Glu-Val-Asn-Sta-Val-Ala-Glu-DPro-NH2 × 3TFA] (H-YPYFI[dK]LG[dK]GEVN[Sta]VAE[dP]-NH2), the IC50 under setting [1] is > 40 µM.
Regarding `CC[C@H](C)[C@H](NC(=O)[C@H](Cc1ccccc1)NC(=O)[C@H](CCCCN)NC(=O)[C@@H]1CCCN1C(=O)[C@H](Cc1ccc(O)cc1)NC(=O)[C@H](CC(=O)O)NC(=O)CNC(C)=O)C(=O)N1CCC[C@H]1C(=O)N[C@@H](C)C(=O)N[C@@H](CO)C(N)=O` [Example E5, Ac-Gly-Asp-Tyr-Pro-Lys-Phe-Ile-Pro-Ala-Ser-NH2] (Ac-GDYPKFIPAS-NH2), under setting [2], the IC50 is > 40 µM.
Still for that read-out and setting: with `CC(=O)N[C@@H](CCC(N)=O)C(=O)N[C@@H](CCC(N)=O)C(=O)N[C@@H](Cc1ccc(O)cc1)C(=O)N1CCC[C@H]1C(=O)N[C@@H](Cc1ccc(O)cc1)C(=O)N[C@@H](Cc1ccccc1)C(=O)N[C@@H](CCCCN)C(=O)N1CCC[C@H]1C(=O)N[C@@H](C)C(=O)N[C@@H](CC(N)=O)C(N)=O` [Example E1, Ae-Gln-Gln-Tyr-Pro-Tyr-Phe-Lys-Pro-Ala-Asn-NH2] (Ac-QQYPYFKPAN-NH2) the figure was > 40 µM.
As for `CC[C@H](C)[C@H](NC(=O)[C@H](Cc1ccccc1)NC(=O)[C@H](CCCNC(=N)N)NC(=O)[C@H](C)NC(=O)CN)C(=O)N1CCC[C@H]1C(=O)N[C@@H](C)C(=O)NCC(=O)N[C@H](CCCCN)C(=O)NCC(=O)N[C@@H](CCC(=O)O)C(=O)N[C@H](C(=O)N[C@@H](CC(N)=O)C(=O)N[C@@H](CC(C)C)[C@@H](O)CC(=O)N[C@H](C(=O)N[C@@H](C)C(=O)N[C@@H](CCC(=O)O)C(=O)N1CCC[C@@H]1C(N)=O)C(C)C)C(C)C` [Example 16, Gly-Ala-Arg-Phe-Ile-Pro-Ala-Gly-DLys-Gly-Glu-Val-Asn-Sta-Val-Ala-Glu-DPro-NH2 × 3TFA] (H-GARFIPAG[dK]GEVN[Sta]VAE[dP]-NH2; N-terminus assumed), under setting [1], the IC50 stood at 0.42 µM.
Still for that read-out and setting: to `CC[C@H](C)[C@H](NC(=O)[C@H](Cc1ccccc1)NC(=O)[C@H](Cc1ccc(O)cc1)NC(=O)[C@@H](CCCCN)NC(=O)[C@@H](N)Cc1ccc(O)cc1)C(=O)N1CCC[C@H]1C(=O)N[C@@H](CC(C)C)C(=O)NCC(=O)N[C@H](CCCCN)C(=O)NCC(=O)N[C@@H](CCC(=O)O)C(=O)N[C@H](C(=O)N[C@@H](CC(N)=O)C(=O)N[C@@H](CC(C)C)[C@@H](O)CC(=O)N[C@H](C(=O)N[C@@H](C)C(=O)N[C@@H](CCC(=O)O)C(=O)N1CCC[C@@H]1C(N)=O)C(C)C)C(C)C` [Example 31, H-Tyr-DLys-Tyr-Phe-Ile-Pro-Leu-Gly-DLys-Gly-Glu-Val-Asn-Sta-Val-Ala-Glu-DPro-NH2] (H-Y[dK]YFIPLG[dK]GEVN[Sta]VAE[dP]-NH2) belongs > 40 µM.
Consider `CC[C@H](C)[C@H](NC(=O)[C@H](Cc1ccccc1)NC(=O)[C@H](CCCNC(=N)N)NC(=O)[C@H](C)NC(=O)CNC(=O)[C@@H](NC(=O)[C@H](CO)NC(C)=O)[C@@H](C)O)C(=O)N1CCC[C@H]1C(=O)N[C@@H](C)C(=O)N[C@@H](CC(N)=O)C(N)=O` [Example E3, Ac-Ser-Thr-Gly-Ala-Arg-Phe-Ile-Pro-Ala-Asn-NH2] (Ac-STGARFIPAN-NH2), for which, under setting [2], the IC50 was > 40 µM.
Consider `CC[C@H](C)[C@H](NC(=O)[C@H](Cc1ccccc1)NC(=O)[C@H](Cc1ccc(O)cc1)NC(=O)[C@@H]1CCCN1C(=O)[C@@H](N)Cc1ccc(O)cc1)C(=O)N1CCC[C@H]1C(=O)N[C@H](CCCCN)C(=O)NCC(=O)N[C@H](CCCCN)C(=O)NCC(=O)N[C@@H](CCC(=O)O)C(=O)N[C@H](C(=O)N[C@@H](CC(N)=O)C(=O)N[C@@H](CCSC)[C@@H](O)CC(=O)N[C@H](C(=O)N[C@@H](C)C(=O)N[C@@H](CCC(=O)O)C(=O)N1CCC[C@H]1C(N)=O)C(C)C)C(C)C` [Example 18, Tyr-Pro-Tyr-Phe-Ile-Pro-DLys-Gly-DLys-Gly-Glu-Val-Asn-MetSta-Val-Ala-Glu-Pro-NH2 × 3TFA], for which the IC50 under setting [1] is 0.015 µM.
Turning to `CC[C@H](C)[C@H](NC(=O)[C@@H](CCCCN)NC(=O)[C@H](Cc1ccc(O)cc1)NC(=O)[C@@H]1CCCN1C(=O)[C@@H](N)Cc1ccc(O)cc1)C(=O)N1CCC[C@H]1C(=O)N[C@@H](CC(C)C)C(=O)NCC(=O)N[C@H](CCCCN)C(=O)NCC(=O)N[C@@H](CCC(=O)O)C(=O)N[C@H](C(=O)N[C@@H](CC(N)=O)C(=O)N[C@@H](CC(C)C)[C@@H](O)CC(=O)N[C@H](C(=O)N[C@@H](C)C(=O)N[C@@H](CCC(=O)O)C(=O)N1CCC[C@@H]1C(N)=O)C(C)C)C(C)C` [Example 33, H-Tyr-Pro-Tyr-DLys-Ile-Pro-Leu-Gly-DLys-Gly-Glu-Val-Asn-Sta-Val-Ala-Glu-DPro-NH2] (H-YPY[dK]IPLG[dK]GEVN[Sta]VAE[dP]-NH2), the IC50 under setting [3] amounted to 34.8 µM.
Take “YQTFKPANGS [Example E2, Ac-Tyr-Gln-Thr-Phe-Lys-Pro-Ala-Asn-Gly-Ser-NH2, exosite motif peptide tested alone]”: the IC50 under setting [2] is > 40 µM.
